Experimental data: patent publication US7060490B1, “DNA encoding novel estrogen receptor” (Akzo Nobel N.V., priority 1996, dated 2006)

Assays:
ERβ = ERβ (Homo sapiens, UniProt Q92731); assay: Transient transfection transactivation assay, rat oxytocin promoter-luciferase reporter in CHO cells, ERβ
ERα = molecular target: T1, ERα (Homo sapiens, UniProt P03372); assay: Transactivation assay in stably transfected CHO cell line expressing ERα with rat oxytocin-luciferase reporter; type: cell-based; conditions: stably transfected CHO cell lines ERα vs ERβ; agonist curves FIGS. 5A, 5B
T1 construct: expressed in transfected cells
T1 sequence (P03372 whole entry): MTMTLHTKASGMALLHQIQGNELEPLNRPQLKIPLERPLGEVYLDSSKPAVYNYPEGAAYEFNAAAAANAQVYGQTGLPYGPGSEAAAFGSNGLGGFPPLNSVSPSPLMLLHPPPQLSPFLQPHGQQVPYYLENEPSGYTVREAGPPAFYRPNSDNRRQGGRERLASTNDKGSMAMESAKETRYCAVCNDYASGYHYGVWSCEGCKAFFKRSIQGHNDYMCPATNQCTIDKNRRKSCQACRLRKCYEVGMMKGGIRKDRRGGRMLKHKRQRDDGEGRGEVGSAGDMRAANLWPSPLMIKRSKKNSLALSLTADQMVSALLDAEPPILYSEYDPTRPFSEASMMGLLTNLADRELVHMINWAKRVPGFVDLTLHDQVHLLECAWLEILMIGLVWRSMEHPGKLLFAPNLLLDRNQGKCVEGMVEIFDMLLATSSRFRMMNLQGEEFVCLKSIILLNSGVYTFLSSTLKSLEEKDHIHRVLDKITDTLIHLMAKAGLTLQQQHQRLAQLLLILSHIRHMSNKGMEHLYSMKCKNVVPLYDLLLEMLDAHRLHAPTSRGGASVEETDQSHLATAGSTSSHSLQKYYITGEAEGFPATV

ERβ, sequence (Q92731 whole entry): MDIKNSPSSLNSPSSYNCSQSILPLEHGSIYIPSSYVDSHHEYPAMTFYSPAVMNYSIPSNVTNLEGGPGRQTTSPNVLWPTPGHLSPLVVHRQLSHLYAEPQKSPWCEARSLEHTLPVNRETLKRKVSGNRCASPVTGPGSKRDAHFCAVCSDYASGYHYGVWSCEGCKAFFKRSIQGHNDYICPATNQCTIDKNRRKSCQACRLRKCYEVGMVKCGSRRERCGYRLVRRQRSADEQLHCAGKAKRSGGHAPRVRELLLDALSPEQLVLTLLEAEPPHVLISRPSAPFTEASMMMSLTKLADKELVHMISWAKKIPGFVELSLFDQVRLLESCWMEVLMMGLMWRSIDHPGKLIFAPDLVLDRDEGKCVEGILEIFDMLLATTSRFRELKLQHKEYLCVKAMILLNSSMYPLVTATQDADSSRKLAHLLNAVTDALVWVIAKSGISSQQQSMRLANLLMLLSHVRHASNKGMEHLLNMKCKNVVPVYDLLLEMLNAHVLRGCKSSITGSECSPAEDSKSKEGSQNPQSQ

Row | stimulation of luciferase activity with ERβ (ERβ; 10^−9 mol/L 17β-estradiol, transient CHO, normalised for β-galactosidase, FIG. 3) [fold] | increase in luciferase activity as compared to untreated cells (ERβ; CHO cells transiently transfected with ERβ expression vector and reporter, hormones 10^−7 mol/L, FIG. 2) [fold] | SMILES | concentration for half-maximal transactivation, ERα as compared to ERβ (ERα)
1 | 7 | 3 to 4 | C[C@]12CC[C@@H]3c4ccc(O)cc4CC[C@H]3[C@@H]1CC[C@@H]2O [17β-estradiol] | 
2 |  |  | C#C[C@]1(O)CC[C@H]2[C@@H]3[C@H](C)CC4=C(CC[C@@H](O)C4)[C@H]3CC[C@@]21C [Org4094] | much more pronounced
